Experimental data reported in patent publication US4868321A, “Isothiocyanate intermediates” (FMC Corporation, priority 1988, dated 1989).

Assays:
Format in all cases: in vivo
[1] = test system: Johnsongrass; experiment: Postemergence Herbicidal Activity, Johnsongrass; details: Sorghum halepense, post-emergence; for pest or weed control at 2000 g/ha: 2.0 kg/ha
Procedure, shortened: (§1)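 Herbicidal response was graded as percent control. Compound rates were in kg/ha.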

[2] = test system: Morningglory; experiment: Postemergence Herbicidal Activity, Morningglory; details: Ipomoea, post-emergence; for pest or weed control at 2000 g/ha: 2.0 kg/ha
Procedure, shortened: (§2)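 Percent control scored after pre- or postemergence treatment at rates in kg/ha, using test compounds generally formulated in 50/50 acetone/water.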

[3] = test system: Cotton; experiment: Preemergence Herbicidal Activity, Cotton; details: Gossypium hirsutum, pre-emergence; for plant injury at 2000 g/ha: 2.0 kg/ha
Procedure, shortened: as §2

[4] = test system: Green Foxtail; experiment: Preemergence Herbicidal Activity, Green Foxtail; details: Setaria viridis, pre-emergence; for pest or weed control at 2000 g/ha: 2.0 kg/ha
Procedure, shortened: as §1

[5] = test system: Velvetleaf; experiment: Postemergence Herbicidal Activity, Velvetleaf; details: Abutilon theophrasti, post-emergence; for pest or weed control at 2000 g/ha: 2.0 kg/ha
Procedure, shortened: as §2

[6] = test system: Green Foxtail; experiment: Postemergence Herbicidal Activity, Green Foxtail; details: Setaria viridis, post-emergence; for pest or weed control at 2000 g/ha: 2.0 kg/ha
Procedure, shortened: as §1

[7] = test system: Field Bindweed; experiment: Preemergence Herbicidal Activity, Field Bindweed; details: pre-emergence; for pest or weed control at 2000 g/ha: 2.0 kg/ha
Procedure, shortened: as §2

[8] = test system: Wheat; experiment: Preemergence Herbicidal Activity, Wheat; details: Triticum aestivum, pre-emergence; for plant injury at 2000 g/ha: 2.0 kg/ha
Procedure, shortened: (§3)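 Efficacy is recorded as percent control at each application rate, expressed in kg/ha.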

[9] = test system: Cotton; experiment: Postemergence Herbicidal Activity, Cotton; details: Gossypium hirsutum, post-emergence; for plant injury at 2000 g/ha: 2.0 kg/ha
Procedure, shortened: as §2

[10] = test system: Soybean; experiment: Postemergence Herbicidal Activity, Soybean; details: Glycine max, post-emergence; for plant injury at 2000 g/ha: 2.0 kg/ha
Procedure, shortened: as §3

[11] = test system: broad leaf weeds; experiment: preemergence use against broad leaf weeds; details: with crops such as corn, rice, wheat and soybeans
[12] = test system: Rice; experiment: Postemergence Herbicidal Activity, Rice; details: Oryza sativa, post-emergence; for plant injury at 2000 g/ha: 2.0 kg/ha
Procedure, shortened: as §3

[13] = test system: Johnsongrass; experiment: Preemergence Herbicidal Activity, Johnsongrass; details: Sorghum halepense, pre-emergence; for pest or weed control at 2000 g/ha: 2.0 kg/ha
Procedure, shortened: as §1

[14] = test system: Barnyardgrass; experiment: Postemergence Herbicidal Activity, Barnyardgrass; details: Echinochloa crus-galli, post-emergence; for pest or weed control at 2000 g/ha: 2.0 kg/ha
Procedure, shortened: as §1

[15] = test system: Soybean; experiment: Preemergence Herbicidal Activity, Soybean; details: Glycine max, pre-emergence; for plant injury at 2000 g/ha: 2.0 kg/ha
Procedure, shortened: as §3

[16] = test system: Wheat; experiment: Postemergence Herbicidal Activity, Wheat; details: Triticum aestivum, post-emergence; for plant injury at 2000 g/ha: 2.0 kg/ha
Procedure, shortened: as §3

[17] = test system: Field Corn; experiment: Postemergence Herbicidal Activity, Field Corn; details: Zea mays, post-emergence; for plant injury at 2000 g/ha: 2.0 kg/ha
Procedure, shortened: as §3

[18] = test system: Field Bindweed; experiment: Postemergence Herbicidal Activity, Field Bindweed; details: post-emergence; for pest or weed control at 2000 g/ha: 2.0 kg/ha
Procedure, shortened: as §2

[19] = test system: Rice; experiment: Preemergence Herbicidal Activity, Rice; details: Oryza sativa, pre-emergence; for plant injury at 2000 g/ha: 2.0 kg/ha
Procedure, shortened: as §3

[20] = test system: Morningglory; experiment: Preemergence Herbicidal Activity, Morningglory; details: Ipomoea, pre-emergence; for pest or weed control at 2000 g/ha: 2.0 kg/ha
Procedure, shortened: as §2

[21] = test system: Velvetleaf; experiment: Preemergence Herbicidal Activity, Velvetleaf; details: Abutilon theophrasti, pre-emergence; for pest or weed control at 2000 g/ha: 2.0 kg/ha
Procedure, shortened: as §2

[22] = test system: Field Corn; experiment: Preemergence Herbicidal Activity, Field Corn; details: Zea mays, pre-emergence; for plant injury at 2000 g/ha: 2.0 kg/ha
Procedure, shortened: as §3

[23] = test system: Barnyardgrass; experiment: Preemergence Herbicidal Activity, Barnyardgrass; details: Echinochloa crus-galli, pre-emergence; for pest or weed control at 2000 g/ha: 2.0 kg/ha
Procedure, shortened: as §1

`CCS(=O)(=O)Nc1cc(-n2nnn(CCCF)c2=O)c(F)cc1Br` [Compound 34, 1-[4-Bromo-2-fluoro-5-(N--ethylsulfonylamino)phenyl]-4,5-dihydro-] was tested, and the pest or weed control at 250 g/ha ([1]; 0.25 kg/ha) was 50%, the pest or weed control at 250 g/ha ([2]; 0.25 kg/ha) was 100% and the plant injury at 250 g/ha ([3]; 0.25 kg/ha) was 95%. For the same compound, the pest or weed control at 250 g/ha ([4]; 0.25 kg/ha) was 70%, the pest or weed control at 250 g/ha ([5]; 0.25 kg/ha) was 100% and the pest or weed control at 250 g/ha ([6]; 0.25 kg/ha) was 90%. The pest or weed control at 250 g/ha ([7]; 0.25 kg/ha) was 100%, the plant injury at 250 g/ha ([8]; 0.25 kg/ha) was 0% and the plant injury at 250 g/ha ([9]; 0.25 kg/ha) was 100%. The plant injury at 250 g/ha ([10]; 0.25 kg/ha) was 70%, the “usefulness preemergently against broad leaf weeds” value [11] was “particularly useful” and the plant injury at 250 g/ha ([12]; 0.25 kg/ha) was 70%. The pest or weed control at 250 g/ha ([13]; 0.25 kg/ha) was 50%, the pest or weed control at 250 g/ha ([14]; 0.25 kg/ha) was 70% and the plant injury at 250 g/ha ([15]; 0.25 kg/ha) was 20%. It also gave a plant injury at 250 g/ha ([16]; 0.25 kg/ha) of 40%, a plant injury at 250 g/ha ([17]; 0.25 kg/ha) of 40% and a pest or weed control at 250 g/ha ([18]; 0.25 kg/ha) of 100%. It also gave a plant injury at 250 g/ha ([19]; 0.25 kg/ha) of 60%, a pest or weed control at 250 g/ha ([20]; 0.25 kg/ha) of 100% and a pest or weed control at 250 g/ha ([21]; 0.25 kg/ha) of 100%. It also gave a plant injury at 250 g/ha ([22]; 0.25 kg/ha) of 60% and a pest or weed control at 250 g/ha ([23]; 0.25 kg/ha) of 95%.
`CCCn1nnn(-c2cc(N(S(=O)(=O)CC)S(=O)(=O)CC)c(Cl)cc2F)c1=O` [Compound 49, 1-[4-Chloro-2-fluoro-5-[bis-(N--ethylsulfonyl)amino]phenyl]-4,5-dihydro-4-propyl-5H--tetrazol-5-one] showed a pest or weed control at 2000 g/ha [1] of 90%, a pest or weed control at 2000 g/ha [2] of 90% and a plant injury at 2000 g/ha [3] of 90%. For the same compound, the pest or weed control at 2000 g/ha [4] was 100%, the pest or weed control at 2000 g/ha [5] was 100% and the pest or weed control at 2000 g/ha [6] was 95%. The pest or weed control at 2000 g/ha [7] was 80%, the plant injury at 2000 g/ha [8] was 95% and the plant injury at 2000 g/ha [9] was 100%. For the same compound, the plant injury at 2000 g/ha [10] was 50%, the plant injury at 2000 g/ha [12] was 50% and the pest or weed control at 2000 g/ha [13] was 80%. For the same compound, the pest or weed control at 2000 g/ha [14] was 95%, the plant injury at 2000 g/ha [15] was 20% and the plant injury at 2000 g/ha [16] was 80%. For the same compound, the plant injury at 2000 g/ha [17] was 80%, the pest or weed control at 2000 g/ha [18] was 80% and the plant injury at 2000 g/ha [19] was 70%. It also gave a pest or weed control at 2000 g/ha [20] of 70%, a pest or weed control at 2000 g/ha [21] of 100% and a plant injury at 2000 g/ha [22] of 90%. It also gave a pest or weed control at 2000 g/ha [23] of 100%.
Compound `CCCn1nnn(-c2cc(NS(=O)(=O)CC)c(Cl)cc2F)c1=O` [Compound 51, 1-[4-Chloro-2-fluoro-5-(N--ethylsulfonylamino)phenyl]-4,5-dihydro-4-propyl-5H--tetrazol-5-one] has a pest or weed control at 2000 g/ha [1] of 70%, a pest or weed control at 2000 g/ha [2] of 100% and a plant injury at 2000 g/ha [3] of 100%. It also gave a pest or weed control at 2000 g/ha [4] of 95%, a pest or weed control at 2000 g/ha [5] of 100% and a pest or weed control at 2000 g/ha [6] of 80%. For the same compound, the pest or weed control at 2000 g/ha [7] was 100%, the plant injury at 2000 g/ha [8] was 20% and the plant injury at 2000 g/ha [9] was 100%. For the same compound, the plant injury at 2000 g/ha [10] was 70%, the plant injury at 2000 g/ha [12] was 60% and the pest or weed control at 2000 g/ha [13] was 10%. The pest or weed control at 2000 g/ha [14] was 80%, the plant injury at 2000 g/ha [15] was 20% and the plant injury at 2000 g/ha [16] was 70%. It also gave a plant injury at 2000 g/ha [17] of 60%, a pest or weed control at 2000 g/ha [18] of 100% and a plant injury at 2000 g/ha [19] of 30%. For the same compound, the pest or weed control at 2000 g/ha [20] was 100%, the pest or weed control at 2000 g/ha [21] was 100% and the plant injury at 2000 g/ha [22] was 70%. The pest or weed control at 2000 g/ha [23] was 70%.
